Measured values reported in PubChem BioAssay (NCI).
“And” between values parts separate entries of the source, which are not always exact repeats. Identical values can stand only once.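 Test compounds were applied to cells in 96-well plates for 48 hours at 5 doses. The concentration for 50% growth inhibition is given as GI50. TGI: concentration producing complete growth inhibition.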

Legend:
Assay in all cases: DTP human tumour cell line panel, 48 h
OVCAR-8 ovarian = tested on: OVCAR-8 ovarian
NCI-H522 lung = tested on: NCI-H522 lung
786-0 renal = tested on: 786-0 renal
OVCAR-5 ovarian = tested on: OVCAR-5 ovarian
MOLT-4 leukemia = tested on: MOLT-4 leukemia
HOP-92 NSCLC = tested on: HOP-92 NSCLC
UO-31 renal = tested on: UO-31 renal
RPMI-8226 leukemia = tested on: RPMI-8226 leukemia
SR leukemia = tested on: SR leukemia
CCRF-CEM leukemia = tested on: CCRF-CEM leukemia

| SMILES | TGI (OVCAR-8 ovarian) | TGI (NCI-H522 lung) | TGI (786-0 renal) | TGI (OVCAR-5 ovarian) | TGI (MOLT-4 leukemia) | TGI (HOP-92 NSCLC) | TGI (UO-31 renal) | TGI (RPMI-8226 leukemia) | TGI (SR leukemia) | TGI (CCRF-CEM leukemia) | GI50 (OVCAR-8 ovarian) | GI50 (NCI-H522 lung) | GI50 (786-0 renal) | GI50 (OVCAR-5 ovarian) | GI50 (MOLT-4 leukemia) | GI50 (CCRF-CEM leukemia) | GI50 (HOP-92 NSCLC) | GI50 (UO-31 renal) | GI50 (RPMI-8226 leukemia) | GI50 (SR leukemia) |
| --- | --- | --- | --- | --- | --- | --- | --- | --- | --- | --- | --- | --- | --- | --- | --- | --- | --- | --- | --- | --- |
| CN(C)C(N)=NC#N | > 100 µM | > 100 µM | > 100 µM | > 100 µM | > 100 µM | > 100 µM | > 100 µM | > 100 µM | – | – | – | – | – | – | – | – | – | – | – | – |
| C(CCC[Te][Te]CCCCCCOC1CCCCO1)CCOC1CCCCO1 (configuration not stated) | 33.9 µM | – | 29.4 µM | 33.4 µM | 46.6 µM | 30.5 µM | 77.3 µM | – | 38.2 µM | 41.4 µM | – | – | – | – | – | – | – | – | – | – |
| Clc1ccc2[nH]cc(-c3nc(-c4c[nH]c5ncccc45)cs3)c2c1 | 20.8 µM | 13.7 µM | 5.89 µM | 59.5 µM | 25.6 µM | 8.6 µM | 28.2 µM | 77.1 µM | – | > 100 µM | 3.87 µM | 2.73 µM | 2.34 µM | 5.63 µM | 2.73 µM | 4.14 µM | 2.24 µM | 1.36 µM | 3.34 µM | – |
| CCOC(=O)c1[nH]c(-c2ccc(Cl)cc2)cc1-c1cccnc1 | > 100 µM | – | 8.58 µM | > 100 µM | > 100 µM | 84.7 µM | > 100 µM | – | – | > 100 µM | 2.51 µM | – | 0.44 µM | 1.17 µM | 0.683 µM | 0.391 µM | 0.572 µM | 1.02 µM | – | – |
| CC1(C)OC(=O)C=C([O-])O1.CC1(C)OC(=O)C=C([O-])O1.O=S(=O)([O-])c1ccc([O-])c2ncccc12.O=S(=O)([O-])c1ccc([O-])c2ncccc12.[Ti+4] | > 100 µM | > 100 µM | > 100 µM | 63.1 µM | > 100 µM | – | > 100 µM | > 100 µM | – | > 100 µM | 83.4 µM | 52.4 µM | > 100 µM | 25.9 µM | 47.8 µM | 69.8 µM | – | > 100 µM | > 100 µM | – |
| CCOC(=O)C(CO)c1nc2c([nH]c1=O)c(=O)n(C)c(=O)n2C (configuration not stated) | > 100 µM | > 100 µM | > 100 µM | > 100 µM | – | – | > 100 µM | > 100 µM | > 100 µM | > 100 µM | – | – | – | – | – | – | – | – | – | – |
| COc1ccc(-c2cc(/C=C3\C(=O)Nc4ccc(Cl)cc43)[nH]n2)cc1 | 20 µM | 5.67 µM | 17.4 µM | 21.1 µM | 25.6 µM | – | 16.9 µM | 18 µM | 20.1 µM | 16.6 µM | 6.59 µM | 2.03 µM | 5.28 µM | 8.67 µM | 5.13 µM | 3.32 µM | – | 4.02 µM | 4.04 µM | 4.24 µM |
| C=C1C(=O)O[C@H]2[C@H]1CC/C(COC(=O)NCc1ccc(Cn3c(=O)sn(CCCCl)c3=O)cc1)=C\CC[C@@]1(C)O[C@@H]21 | 5.42 µM | 1.94 µM | 2.9 µM | 5.95 µM | 5.41 µM | 2.47 µM | 2.75 µM | 3.1 µM | – | 4.03 µM | 2.32 µM | 0.538 µM | 1.48 µM | 2.64 µM | 1.5 µM | 0.577 µM | 1.1 µM | 1.4 µM | 0.764 µM | – |
| O=c1cc2ccccc2nn1Cc1ccccc1Cl | > 100 µM | – | > 100 µM | > 100 µM | – | > 100 µM | > 100 µM | > 100 µM | – | > 100 µM | – | – | – | – | – | – | – | – | – | – |
| Cc1c(C(=O)NCCO)[n+](=O)c2cc(Cl)ccc2n1[O-] | > 100 µM | – | > 100 µM | > 100 µM | > 100 µM | > 100 µM | > 100 µM | > 100 µM | > 100 µM | > 100 µM | – | – | – | – | – | – | – | – | – | – |
| NC(=O)c1cc(Br)cc(C2CCCCC2)c1O | 30 µM | – | 24.4 µM | 27.8 µM | 34.5 µM | 25.7 µM | 18.3 µM | – | 34.6 µM | 39.8 µM | 14.4 µM | – | 11.8 µM | 13.9 µM | 13.9 µM | 15.1 µM | 12.2 µM | 2.51 µM | – | 14.2 µM |
| Cc1ccc(S(=O)(=O)NC(=O)NC23CC4CC(CC(F)(C4)C2)C3)cc1 | > 100 µM | > 100 µM | > 100 µM | > 100 µM | > 100 µM | > 100 µM | > 100 µM | > 100 µM | – | > 100 µM | – | – | – | – | – | – | – | – | – | – |
| O=C(O)/C(=C/c1c(O)ccc2ccccc12)c1csc(-c2nc(/C(=C\c3c(O)ccc4ccccc34)C(=O)O)cs2)n1 | 49.4 µM | – | 26.8 µM | 31.9 µM | 36.9 µM | 7.77 µM | 6.87 µM | 43.8 µM | – | 31.4 µM | – | – | – | – | – | – | – | – | – | – |
| Nc1ccc(S(=O)(=O)C23CC4CC(CC(C4)C2)C3)cc1 | > 100 µM | > 100 µM | > 100 µM | > 100 µM | – | – | > 100 µM | > 100 µM | > 100 µM | > 100 µM | – | – | – | – | – | – | – | – | – | – |
| COc1ccc2c(c1OC)C1=C(C2=O)c2cc3c(cc2CCN1)OCO3 | > 100 µM | – | > 100 µM | 97.4 µM | 83.9 µM | > 100 µM | > 100 µM | 59.3 µM | 55 µM | > 100 µM | – | – | – | – | – | – | – | – | – | – |
| COc1cc(/C=C2\CC3C4CC=C5C[C@@H](OC(C)=O)CC[C@]5(C)C4CC[C@]3(C)C2=O)ccc1OCCCn1ccnc1 (some centres not stated) | 21.6 µM | > 50 µM | 16 µM | 40.9 µM | > 50 µM | > 50 µM | 19.9 µM | 24.2 µM | – | – | 11 µM | 19 µM | 8.87 µM | 11.9 µM | 20.5 µM | – | 25.4 µM | 9.14 µM | 9.66 µM | – |
| Cn1ncc2c(N)nc(N3CCCCC3)nc21 | 76.1 µM | 63.9 µM | > 100 µM | > 100 µM | – | > 100 µM | > 100 µM | > 100 µM | – | 85.7 µM | 25.9 µM | 23 µM | 69.3 µM | 38.5 µM | – | 25.7 µM | 44.3 µM | 43 µM | 33.1 µM | – |
| Cn1c(=O)nc2n(-c3cccc(F)c3)c3ccccc3nc-2c1=O | 77.1 µM | 38.1 µM | > 100 µM | 74.4 µM | 54.1 µM | – | > 100 µM | 72.6 µM | – | 56.7 µM | – | – | – | – | – | – | – | – | – | – |
| Cc1sc(C)c(Cc2c(C)sc(C)c2CCl)c1CCl | > 100 µM | > 100 µM | > 100 µM | > 100 µM | > 100 µM | – | > 100 µM | > 100 µM | > 100 µM | > 100 µM | > 100 µM | > 100 µM | > 100 µM | > 100 µM | > 100 µM | > 100 µM | – | > 100 µM | > 100 µM | > 100 µM |
| NC(=O)N/N=C/C(/C=N/NC(N)=O)[N+](=O)[O-] | – | > 100 µM | > 100 µM | > 100 µM | – | > 100 µM | – | > 100 µM | – | > 100 µM | – | – | – | – | – | – | – | – | – | – |
| CN1c2ccccc2N(C)C2C1N(C)c1ccccc1N2C (configuration not stated) | > 100 µM | 26 µM | > 100 µM | > 100 µM | 9.69 µM | 52.4 µM | 82.2 µM | 62.9 µM | – | 9.73 µM | – | – | – | – | – | – | – | – | – | – |
| Nc1nnc2cc(Cl)ccc2n1 | > 100 µM | – | > 100 µM | > 100 µM | > 100 µM | 47.6 µM | > 100 µM | > 100 µM | > 100 µM | > 100 µM | > 100 µM | – | > 100 µM | > 100 µM | > 100 µM | > 100 µM | 3.56 µM | 30.2 µM | > 100 µM | > 100 µM |
| COc1cc2c3c(c1)c1cc(OC)c(OC)cc1c[n+]3CC2 | 50 µM and 43.6 µM | 14.8 µM and 37.1 µM | 50 µM and > 100 µM | > 100 µM | 50 µM and > 100 µM | – | > 100 µM | 50 µM | 50 µM | > 100 µM | 1.86 µM | 1.93 µM | 56.2 µM | > 100 µM | 5.16 µM | 69.8 µM | – | – | – | – |
| CO/C1=C\C(C)=C\C(C)C(O)C(C)C/C(C)=C/C=C/C(OC)C(C(C)C(O)C(C)C2(O)CC(O)C(C)C(C(C)C)O2)OC1=O (configuration not stated) | 10.4 µM | – | 10.4 µM | – | 11.7 µM | 0.0225 µM | 0.0587 µM and 0.0234 µM | – | – | – | – | – | – | – | – | – | – | – | – | – |
| CCOC(=O)C1(Cc2ccccc2)CCCCCN1 (configuration not stated) | > 100 µM | – | > 100 µM | – | – | > 100 µM | > 100 µM | – | – | – | – | – | – | – | – | – | – | – | – | – |
| O=C1C[C@@H]2C(COC(=O)c3ccccc3)N(OCc3ccccc3)C[C@@H]2O1 (some centres not stated) | > 100 µM | > 100 µM | > 100 µM | > 100 µM | > 100 µM | – | > 100 µM | – | > 100 µM | > 100 µM | – | – | – | – | – | – | – | – | – | – |
| N#Cc1c(-c2ccccc2)cc(-c2ccc(Nc3nc(Nc4ccc(Cl)cc4)nc(Nc4ccc(Cl)cc4)n3)cc2)nc1N | > 100 µM | 3.1 µM | 3.46 µM | 17.6 µM | 4.53 µM | 3.86 µM | 2.33 µM | > 100 µM | – | 9.4 µM | 3.94 µM | 1.39 µM | 1.91 µM | 4.13 µM | 1.62 µM | 3.1 µM | 1.06 µM | 1.1 µM | 3.81 µM | – |
| Cc1c(C(=O)c2ccccc2C(=O)O)c2ccccc2n1C | > 100 µM | – | > 100 µM | > 100 µM | > 100 µM | – | > 100 µM | > 100 µM | – | > 100 µM | – | – | – | – | – | – | – | – | – | – |
